{
  "source": "patent US8563690B2",
  "about": "“Modulation of platelet aggregation” (The Board of Trustees of the University of Illinois, priority 2008, dated 2013)",
  "assay_type_in_all_cases": "cell-based, human",
  "key": {"[1]": {"test_system": "washed platelets", "assay": "Plasma-free platelet-mediated fibrin clot retraction with washed platelets", "details": "1 mM", "experimental": "FIG. 3A-B: Effects of myr-RGT on fibrin clot retraction and platelet aggregation. FIG. 3A: Platelets were washed and resuspended in HEPES buffer containing 2 mg/ml of human fibrinogen (see “Experimental Procedures”) and incubated with different peptides or their vehicles as indicated. Fibrin clot formation was initiated by adding 1 U/ml thrombin. Clot retraction was monitored over time and photographs of the clots were taken at different time points (lower panel). The asterisks indicate peptide concentration (* 62.5 μM; ** 125 μM; *** 250 μM). The histograms of the clot size were generated from the photographs by calculating the ratio of the surface area of the retracted clot versus that of the initial clot. […]\nPlatelet clot retraction is an essential step in platelet thrombus consolidation and is initiated following platelet activation as a late consequence of integrin outside-in signaling. […] Clot retraction was monitored over a 90 min time period by taking photographs at indicated time points using a digital camera. Clot retraction was quantified on the photographs by measuring the clot surface area with the NIH Image 1.67e software, and the data were processed using Excel 4.0. Results were expressed as percentage of retraction (%=area t/area t0×100%)."}, "[2]": {"test_system": "platelets", "experimental": "(§1) FIG. 2A-C: Quantitative analysis of the effect of myristoylated RGT peptide on platelet stable adhesion and spreading on immobilized fibrinogen. FIG. 2A: Platelets were added to microtiter wells precoated with fibrinogen and allowed to adhere for 30 min at 37° C. The phosphatase activity in supernatants (open columns) or in adherent platelets (close columns) was quantified by a PNPP assay. Data of three experiments (means and SD) were presented as the ratio of the phosphatase activity of platelet samples over blank. The asterisks indicate peptide concentration (* 62.5 μM; ** 125 μM; *** 250 μM). […] The phosphatase activity in supernatants (open columns) or in remaining platelet suspensions (close columns) was quantified by a PNPP assay. […] For quantitative analysis of the effect of the RGT peptide on platelet adhesion, we used a phosphatase assay. […] Nonadherent platelets were removed by three vigorous washes with phosphate-buffered saline (PBS), and adherent platelets were quantified by a phosphatase assay. In addition, to monitor peptide-dependent platelet lysis, the platelet phosphatase activity was separately measured in the supernatant of the platelets in suspension or following their adhesion to fibrinogen by mixing with PNPP substrate solution (100 mM sodium acetate, 1% Triton X-100, 3 mg/ml p-nitrophenyl phosphate) for 60 min at 37° C. […]"}, "[3]": {"test_system": "platelets", "assay": "Platelet stable adhesion on immobilized fibrinogen (phosphatase assay)", "details": "62.5-250 μM", "experimental": "as §1"}},
  "note": "Residues, ends and D or L forms follow the SMILES beside them. *: point of attachment. Myristoyl = CCCCCCCCCCCCCC(=O)*",
  "data": [
    {"compound": "RGDS", "values": [
      {"measurement": "inhibition of clot retraction", "setting": "[1]", "value": "inhibit clot retraction"}
    ]},
    {"compound": "CCCCCCCCCCCCCC(=O)N[C@@H](CCCNC(=N)N)C(=O)NCC(=O)N[C@H](C(=O)O)[C@@H](C)O", "note": "[myr-RGT] (Myristoyl-Arg-Gly-Thr-OH; N-terminus and C-terminus assumed)", "values": [
      {"measurement": "platelet lysis", "setting": "[2]", "value": "did not induce platelet lysis"}
    ]},
    {"compound": "CCCCCCCCCCCCCC(=O)O", "note": "[myristic acid, tetradecanoic acid]", "values": [
      {"measurement": "effect on platelet stable adhesion on immobilized fibrinogen", "setting": "[3]", "value": "no significant inhibitory effect"}
    ]}
  ]
}
